What was measured:
Experiment in all cases: Kinase selectivity, DiscoverX scanMAX Kinase assay panel (% control)
Type in all cases: binding
[1] = biological target: T1, kinases of the scanMAX Kinase assay panel (Homo sapiens, UniProt P07949, V804M); settings: kinase RET(V804M); 1 uM in DMSO
T1 construct: purchased DiscoverX Co. (contract measurement) scanMAX Kinase assay panel
How it was run: (§1)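 Compounds were tested at 1 uM (in DMSO) against each panel kinase. % control was calculated as (compound − positive control)/(negative control − positive control)×100, where the positive control gives 0% and DMSO gives 100%. Activity toward a kinase was called at % control <35%.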

[2] = biological target: T2, kinases of the scanMAX Kinase assay panel (Homo sapiens, UniProt O14965); settings: AURKA; 1 uM
T2 construct: purchased DiscoverX Co. (contract measurement) scanMAX Kinase assay panel
T2 sequence (O14965 1-403): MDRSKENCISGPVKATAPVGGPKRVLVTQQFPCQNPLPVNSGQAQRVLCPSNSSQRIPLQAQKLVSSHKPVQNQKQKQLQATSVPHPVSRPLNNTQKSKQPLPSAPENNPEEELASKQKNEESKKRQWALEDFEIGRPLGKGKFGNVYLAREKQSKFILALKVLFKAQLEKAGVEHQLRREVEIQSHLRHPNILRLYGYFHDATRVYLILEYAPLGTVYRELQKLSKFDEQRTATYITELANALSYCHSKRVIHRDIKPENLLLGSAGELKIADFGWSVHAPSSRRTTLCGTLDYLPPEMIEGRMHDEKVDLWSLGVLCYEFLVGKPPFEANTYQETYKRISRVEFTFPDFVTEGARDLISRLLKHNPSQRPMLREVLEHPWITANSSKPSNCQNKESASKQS
How it was run: as §1

[3] = biological target: T3, kinases of the scanMAX Kinase assay panel (Homo sapiens, UniProt P31751); settings: AKT2; 1 uM
T3 construct: purchased DiscoverX Co. (contract measurement) scanMAX Kinase assay panel
T3 sequence (P31751 whole entry): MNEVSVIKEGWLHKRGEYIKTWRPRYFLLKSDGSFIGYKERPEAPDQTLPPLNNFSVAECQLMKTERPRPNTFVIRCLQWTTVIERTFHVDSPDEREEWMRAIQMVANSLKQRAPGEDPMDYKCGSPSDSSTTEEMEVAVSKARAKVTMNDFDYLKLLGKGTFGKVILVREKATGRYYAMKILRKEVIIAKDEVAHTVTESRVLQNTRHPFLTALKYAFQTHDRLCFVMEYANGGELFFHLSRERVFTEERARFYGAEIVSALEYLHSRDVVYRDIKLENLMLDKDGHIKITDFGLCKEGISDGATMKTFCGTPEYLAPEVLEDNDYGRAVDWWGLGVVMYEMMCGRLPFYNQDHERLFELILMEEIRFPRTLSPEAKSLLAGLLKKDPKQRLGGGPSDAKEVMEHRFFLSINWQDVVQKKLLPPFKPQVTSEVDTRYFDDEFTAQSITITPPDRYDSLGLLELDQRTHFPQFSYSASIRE
How it was run: as §1

[4] = biological target: T4, kinases of the scanMAX Kinase assay panel (Homo sapiens, UniProt Q06418); settings: kinase TYRO3; 1 uM in DMSO
T4 construct: purchased DiscoverX Co. (contract measurement) scanMAX Kinase assay panel
T4 sequence (Q06418 41-890): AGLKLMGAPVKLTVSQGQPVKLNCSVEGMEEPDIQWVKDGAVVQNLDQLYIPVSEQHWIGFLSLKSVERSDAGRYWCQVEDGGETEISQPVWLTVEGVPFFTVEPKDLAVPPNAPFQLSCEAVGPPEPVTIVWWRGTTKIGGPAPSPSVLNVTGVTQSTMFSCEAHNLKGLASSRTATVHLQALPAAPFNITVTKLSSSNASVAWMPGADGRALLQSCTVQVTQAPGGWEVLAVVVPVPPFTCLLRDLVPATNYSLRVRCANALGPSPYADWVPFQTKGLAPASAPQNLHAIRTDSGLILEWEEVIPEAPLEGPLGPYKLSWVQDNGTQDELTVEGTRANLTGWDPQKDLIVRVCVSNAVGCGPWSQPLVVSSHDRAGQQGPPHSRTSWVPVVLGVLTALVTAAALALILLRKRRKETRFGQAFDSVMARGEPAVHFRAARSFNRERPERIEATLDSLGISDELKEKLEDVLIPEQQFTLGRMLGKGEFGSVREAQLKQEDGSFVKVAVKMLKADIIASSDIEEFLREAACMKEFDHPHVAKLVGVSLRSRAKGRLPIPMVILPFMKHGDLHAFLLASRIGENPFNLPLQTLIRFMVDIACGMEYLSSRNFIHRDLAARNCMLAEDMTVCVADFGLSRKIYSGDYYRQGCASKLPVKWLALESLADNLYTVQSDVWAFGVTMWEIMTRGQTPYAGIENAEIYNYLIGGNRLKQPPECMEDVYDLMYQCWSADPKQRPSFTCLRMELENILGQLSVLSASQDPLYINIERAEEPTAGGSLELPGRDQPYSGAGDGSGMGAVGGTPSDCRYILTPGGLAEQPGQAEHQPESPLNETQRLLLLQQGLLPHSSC
How it was run: as §1

[5] = system: kinases of the scanMAX Kinase assay panel; settings: 1 uM
How it was run: as §1

[6] = biological target: T5, kinases of the scanMAX Kinase assay panel (Homo sapiens, UniProt O15197); settings: EPHB6; 1 uM
T5 construct: purchased DiscoverX Co. (contract measurement) scanMAX Kinase assay panel
T5 sequence (O15197 32-1021): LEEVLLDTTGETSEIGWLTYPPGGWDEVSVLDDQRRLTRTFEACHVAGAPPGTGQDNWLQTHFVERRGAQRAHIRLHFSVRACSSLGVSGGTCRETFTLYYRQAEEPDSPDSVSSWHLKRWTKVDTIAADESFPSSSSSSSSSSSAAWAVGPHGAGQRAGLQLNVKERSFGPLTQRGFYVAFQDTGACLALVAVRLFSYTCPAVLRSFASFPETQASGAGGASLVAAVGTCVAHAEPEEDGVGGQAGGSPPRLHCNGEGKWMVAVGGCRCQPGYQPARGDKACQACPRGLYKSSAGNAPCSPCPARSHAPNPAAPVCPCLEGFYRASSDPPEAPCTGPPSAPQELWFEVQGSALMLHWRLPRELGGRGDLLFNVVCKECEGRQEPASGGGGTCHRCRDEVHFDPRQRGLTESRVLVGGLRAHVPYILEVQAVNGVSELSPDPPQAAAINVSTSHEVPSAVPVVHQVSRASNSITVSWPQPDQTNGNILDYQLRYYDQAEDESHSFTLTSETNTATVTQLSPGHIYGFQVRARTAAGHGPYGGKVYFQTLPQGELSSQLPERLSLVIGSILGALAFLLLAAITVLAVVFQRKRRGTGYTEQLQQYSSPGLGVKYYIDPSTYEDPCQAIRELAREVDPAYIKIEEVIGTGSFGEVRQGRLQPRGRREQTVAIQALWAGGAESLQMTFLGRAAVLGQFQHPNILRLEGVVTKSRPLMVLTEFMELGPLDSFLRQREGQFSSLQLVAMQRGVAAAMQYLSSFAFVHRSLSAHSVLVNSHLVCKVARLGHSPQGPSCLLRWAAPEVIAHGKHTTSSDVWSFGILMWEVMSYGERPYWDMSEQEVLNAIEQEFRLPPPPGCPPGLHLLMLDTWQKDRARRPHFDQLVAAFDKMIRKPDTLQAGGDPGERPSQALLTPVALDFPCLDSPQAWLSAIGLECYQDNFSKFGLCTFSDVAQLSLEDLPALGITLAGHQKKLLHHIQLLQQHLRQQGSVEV
How it was run: as §1

T1 sequence (P07949 29-1114 V804M): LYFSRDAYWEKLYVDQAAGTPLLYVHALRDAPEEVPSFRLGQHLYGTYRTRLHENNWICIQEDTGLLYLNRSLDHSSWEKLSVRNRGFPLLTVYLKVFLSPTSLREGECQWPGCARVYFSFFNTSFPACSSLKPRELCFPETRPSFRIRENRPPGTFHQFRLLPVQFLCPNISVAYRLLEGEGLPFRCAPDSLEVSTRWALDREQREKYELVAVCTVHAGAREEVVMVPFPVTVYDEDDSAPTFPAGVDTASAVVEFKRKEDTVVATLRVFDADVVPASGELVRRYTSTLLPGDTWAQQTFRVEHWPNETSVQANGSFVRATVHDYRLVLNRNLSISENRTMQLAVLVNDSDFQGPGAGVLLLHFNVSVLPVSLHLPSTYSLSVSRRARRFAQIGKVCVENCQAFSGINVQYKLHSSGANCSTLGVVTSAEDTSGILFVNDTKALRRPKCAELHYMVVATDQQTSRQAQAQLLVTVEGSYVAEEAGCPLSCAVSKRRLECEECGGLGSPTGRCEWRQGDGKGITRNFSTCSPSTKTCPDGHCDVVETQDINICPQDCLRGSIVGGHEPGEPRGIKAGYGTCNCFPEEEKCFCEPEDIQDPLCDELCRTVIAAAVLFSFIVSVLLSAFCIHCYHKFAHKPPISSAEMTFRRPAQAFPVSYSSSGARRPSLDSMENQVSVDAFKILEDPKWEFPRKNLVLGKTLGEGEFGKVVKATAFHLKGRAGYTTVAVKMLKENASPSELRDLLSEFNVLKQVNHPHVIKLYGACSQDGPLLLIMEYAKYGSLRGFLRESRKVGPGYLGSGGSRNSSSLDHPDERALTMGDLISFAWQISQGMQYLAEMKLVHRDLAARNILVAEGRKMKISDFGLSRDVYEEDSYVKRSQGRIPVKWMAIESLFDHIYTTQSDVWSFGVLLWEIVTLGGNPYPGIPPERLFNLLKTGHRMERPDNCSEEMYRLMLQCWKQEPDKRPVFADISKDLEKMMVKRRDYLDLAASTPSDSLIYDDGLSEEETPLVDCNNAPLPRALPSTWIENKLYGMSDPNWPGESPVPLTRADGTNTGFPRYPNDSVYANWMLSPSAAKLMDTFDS

SMILES | remaining binding at 1 µM [1] [%] | remaining binding at 1 µM [2] [%] | remaining binding at 1 µM [3] [%] | remaining binding at 1 µM [4] [%] | % control ([5]; EGFR(L747-E749de1, A750P)) [%] | % control ([5]; EGFR(L747-S752de1, P753S)) [%] | % control ([5]; EGFR(L747-T751de1, Sins)) [%] | % control ([5]; EPHAl) [%] | % control ([5]; FLT3(ITD)) [%] | % control ([5]; FLT3(ITD, D835V)) [%] | % control ([5]; FLT3(ITD, F691L)) [%] | remaining binding at 1 µM [6] [%]
CNc1nc(Nc2ccc(C(=O)N3CCOCC3)cc2OC)nc2[nH]cc(C#N)c12 [Example 1, 2-((2-methoxy-4-(morpholine-4-carbonyl)phenyl)amino)-4-(methylamino)-7H-pyrrolo[2,3-d]pyrimidine-5-carbonitrile] | 89 | 99 | 86 | 100 | 98.0 | 100.0 | 61.0 | 93.0 | 83.0 | 51.0 | 47.0 | 84
CC1(Nc2nc(Nc3cnn([C@H]4CCN(C5COC5)C[C@@H]4F)c3Cl)nc3[nH]cc(C#N)c23)CC1 [Example 52, 2-((5-chloro-1-((3S,4S)-3-fluoro-1-(oxetane-3-yl)piperidine-4-yl)-1H-pyrazole-4-yl)amino)((1-methylcyclopropyl)amino)-7H-pyrrolo[2,3-d]pyrimidine-5-carbonitrile] | 0 | 0.85 | 100 | 45 | 38 | 49 | 68 | 58 | 0 | 0 | 0.7 | 3.7
CCNc1nc(Nc2ccc(C(=O)N3CCC(N4CCOCC4)CC3)cc2OC)nc2[nH]cc(C(F)(F)F)c12 [Example 104, (4-((4-(ethylamino)-5-(trifluoromethyl)-7H-pyrrolo[2,3-d]pyrimidine-2-yl)amino)-3-methoxyphenyl)(4-morpholinopiperidine-1-yl)methanone] | 87 | 87 | 94 | 100 | 99 | 98 | 100 | 100 | 21 | 15 | 79 | 95

From patent US11208412B2 (DAEGU-GYEONGBUK MEDICAL INNOVATION FOUNDATION, priority 2017, dated 2021)
